In patent US20260356856A1, “KRAS G12S AND G12C INHIBITORS” (MIRATI THERAPEUTICS, INC., priority 2023, published 2026) one finds IC50 data, which are given here for 18 molecules.

Test in all cases: KRas binding assay, TR-FRET displacement of Cy5 labelled tracer
What all share (conditions): 60-minute incubation at room temperature, 1% DMSO, pH 7.5

One experiment has as its target T1, KRas G12C (Homo sapiens, UniProt P01116, G12C).
T1 construct: Biotinylated KRas (corresponding to amino acids 1-169, produced at Accelegan Inc.); biotin (biotinylated); purchased Accelegan Inc
The protocol:
(§1) This Example illustrates that exemplary compounds of the present invention bind to KRas and are capable of displacing a labeled tracer ligand occupying the KRas binding site. KRas^WT, KRas^G12A, KRas^G12C, KRas^G12D, KRas^G12R, KRas^G12S, KRas^G12V, KRas^G13D, or KRas^Q61H was used in the assay.
(§2) The ability of a compound to bind to KRas was measured using a TR-FRET displacement assay. Biotinylated KRas (corresponding to amino acids 1-169, produced at Accelegan Inc.) was incubated with custom made Cy5 labelled tracer, terbium streptavidin (Cisbio Inc.) and compound (1% DMSO final) in buffer (50 mM HEPES, pH 7.5, 5 mM MgCl2, 0.005% Tween-20 and 1 mM DTT). After a 60-minute incubation at room temperature, the reaction was measured using a BMG LABTECH CLARIO star Plus via TR-FRET. […] The POC values were fit to a 4-parameter IC50 equation and the IC50 value reported.

For another experiment, the target named is T2, KRas G12S (Homo sapiens, UniProt P01116, G12S).
T2 construct: Biotinylated KRas (corresponding to amino acids 1-169, produced at Accelegan Inc.); biotin (biotinylated); purchased Accelegan Inc
T2 sequence (P01116 1-169 isoform P01116-2 G12S): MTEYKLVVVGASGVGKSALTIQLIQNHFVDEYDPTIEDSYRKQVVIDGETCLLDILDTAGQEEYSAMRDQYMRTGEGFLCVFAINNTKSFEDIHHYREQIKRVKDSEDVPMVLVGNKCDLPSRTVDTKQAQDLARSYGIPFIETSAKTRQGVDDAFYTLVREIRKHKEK
The protocol: as §1, §2

Another experiment has as its target T3, KRas WT (Homo sapiens, UniProt P01116).
T3 construct: Biotinylated KRas (corresponding to amino acids 1-169, produced at Accelegan Inc.); biotin (biotinylated); purchased Accelegan Inc
The protocol:
as §1, §2

T1 sequence (P01116 1-169 isoform P01116-2 G12C): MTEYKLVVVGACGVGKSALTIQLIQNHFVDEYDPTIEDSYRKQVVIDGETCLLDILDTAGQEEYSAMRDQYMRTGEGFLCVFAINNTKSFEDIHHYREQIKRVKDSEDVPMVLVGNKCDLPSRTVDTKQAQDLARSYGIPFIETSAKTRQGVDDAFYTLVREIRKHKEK
T3 sequence (P01116 1-169 isoform P01116-2): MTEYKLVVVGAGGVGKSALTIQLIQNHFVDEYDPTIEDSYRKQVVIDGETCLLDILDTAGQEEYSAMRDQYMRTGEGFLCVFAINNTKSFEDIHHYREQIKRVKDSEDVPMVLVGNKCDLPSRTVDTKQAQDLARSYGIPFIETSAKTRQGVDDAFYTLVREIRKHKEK

For `O=C1OCCN1C(=O)C1CCN(c2nc(OCC34CCCN3CCC4)nc3c(F)c(-c4cccc5cccc(F)c45)ncc23)CC1` [Example 2, 3-(1-(8-fluoro-7-(8-fluoronaphthalen-1-yl)-2-((tetrahydro-1H-pyrrolizin-7a(5H)-yl)methoxy)pyrido[4,3-d]pyrimidin-4-yl)piperidine-4-carbonyl)oxazolidin-2-one], the figures for the IC50 on KRas G12C, at KRas G12S and on KRas WT were more than 100000 nM, 72500 nM and 73900 nM, respectively.
For `O=C(Nc1ccccn1)C1CCN(c2nc(OCC34CCCN3CCC4)nc3c(F)c(-c4cccc5cccc(F)c45)ncc23)CC1` [Example 3, 1-(8-fluoro-7-(8-fluoronaphthalen-1-yl)-2-((tetrahydro-1H-pyrrolizin-7a(5H)-yl)methoxy)pyrido[4,3-d]pyrimidin-4-yl)-N-(pyridin-2-yl)piperidine-4-carboxamide], the IC50 was determined as 582 nM at KRas G12C, 346 nM at KRas G12S and 649 nM on KRas WT.
The corresponding values for `O=C(Oc1c(F)cccc1F)[C@@H]1[C@@H]2C[C@H]1CN(c1nc(OCC34CCCN3CCC4)nc3c(F)c(-c4cccc5cccc(F)c45)ncc13)C2` [Example 5, 2,6-difluorophenyl (1R,5S,6r)-3-(8-fluoro-7-(8-fluoronaphthalen-1-yl)-2-((tetrahydro-1H-pyrrolizin-7a(5H)-yl)methoxy)pyrido[4,3-d]pyrimidin-4-yl)-3-azabicyclo[3.1.1]heptane-6-carboxylate] are 7570 nM, 26500 nM and 34400 nM.
In the same order, the values of `O=C(Oc1c(F)cccc1F)[C@H]1[C@@H]2C[C@H]1CN(c1nc(OCC34CCCN3CCC4)nc3c(F)c(-c4cccc5cccc(F)c45)ncc13)C2` [Example 6, 2,6-difluorophenyl (1R,5S,6s)-3-(8-fluoro-7-(8-fluoronaphthalen-1-yl)-2-((tetrahydro-1H-pyrrolizin-7a(5H)-yl)methoxy)pyrido[4,3-d]pyrimidin-4-yl)-3-azabicyclo[3.1.1]heptane-6-carboxylate] are 10600 nM, 7950 nM and 8060 nM.
Turning to `O=C(Oc1ccc(F)cc1)[C@@H]1[C@@H]2C[C@H]1CN(c1nc(OCC34CCCN3CCC4)nc3c(F)c(-c4cccc5cccc(F)c45)ncc13)C2` [Example 7, 4-fluorophenyl (1R,5S,6r)-3-(8-fluoro-7-(8-fluoronaphthalen-1-yl)-2-((tetrahydro-1H-pyrrolizin-7a(5H)-yl)methoxy)pyrido[4,3-d]pyrimidin-4-yl)-3-azabicyclo[3.1.1]heptane-6-carboxylate], the figures for the IC50 at KRas G12C, on KRas G12S and on KRas WT were 20400 nM, 21200 nM and 24200 nM, respectively.
For `O=C(Oc1ccc(F)cc1)[C@H]1[C@@H]2C[C@H]1CN(c1nc(OCC34CCCN3CCC4)nc3c(F)c(-c4cccc5cccc(F)c45)ncc13)C2` [Example 8, 4-fluorophenyl (1R,5S,6s)-3-(8-fluoro-7-(8-fluoronaphthalen-1-yl)-2-((tetrahydro-1H-pyrrolizin-7a(5H)-yl)methoxy)pyrido[4,3-d]pyrimidin-4-yl)-3-azabicyclo[3.1.1]heptane-6-carboxylate], the IC50 on KRas G12C, at KRas G12S and on KRas WT was more than 100000 nM each time.
Regarding `Cc1cc(C)n(C(=O)C2CCN(c3nc(OCC45CCCN4CCC5)nc4c(F)c(-c5cccc6cccc(F)c56)ncc34)CC2)n1` [Example 9, (3,5-dimethyl-1H-pyrazol-1-yl)(1-(8-fluoro-7-(8-fluoronaphthalen-1-yl)-2-((tetrahydro-1H-pyrrolizin-7a(5H)-yl)methoxy)pyrido[4,3-d]pyrimidin-4-yl)piperidin-4-yl)methanone], the IC50 on KRas G12C was determined as 30600 nM; at KRas G12S, 31500 nM; at KRas WT, 64600 nM.
In the same order, the values of `Cc1ccn(C(=O)C2CCN(c3nc(OCC45CCCN4CCC5)nc4c(F)c(-c5cccc6cccc(F)c56)ncc34)CC2)n1` [Example 10, (1-(8-fluoro-7-(8-fluoronaphthalen-1-yl)-2-((tetrahydro-1H-pyrrolizin-7a(5H)-yl)methoxy)pyrido[4,3-d]pyrimidin-4-yl)piperidin-4-yl)(3-methyl-1H-pyrazol-1-yl)methanone] are 19600 nM, 4670 nM and 43900 nM.
In the same order, the values of `O=C(C1CCN(c2nc(OCC34CCCN3CCC4)nc3c(F)c(-c4cccc5cccc(F)c45)ncc23)CC1)n1cccn1` [Example 11, (1-(8-fluoro-7-(8-fluoronaphthalen-1-yl)-2-((tetrahydro-1H-pyrrolizin-7a(5H)-yl)methoxy)pyrido[4,3-d]pyrimidin-4-yl)piperidin-4-yl)(1H-pyrazol-1-yl)methanone] are 8160 nM, 3840 nM and 9270 nM.
The corresponding values for `O=C(Oc1c(F)cc(F)cc1F)C1CCN(c2nc(OCC34CCCN3CCC4)nc3c(F)c(-c4cccc5cccc(F)c45)ncc23)CC1` [Example 12, 2,4,6-trifluorophenyl 1-(8-fluoro-7-(8-fluoronaphthalen-1-yl)-2-((tetrahydro-1H-pyrrolizin-7a(5H)-yl)methoxy)pyrido[4,3-d]pyrimidin-4-yl)piperidine-4-carboxylate] are 808 nM, 59600 nM and 48500 nM.
For `O=C(Oc1ccc(F)cc1F)C1CCN(c2nc(OCC34CCCN3CCC4)nc3c(F)c(-c4cccc5cccc(F)c45)ncc23)CC1` [Example 13, 2,4-difluorophenyl 1-(8-fluoro-7-(8-fluoronaphthalen-1-yl)-2-((tetrahydro-1H-pyrrolizin-7a(5H)-yl)methoxy)pyrido[4,3-d]pyrimidin-4-yl)piperidine-4-carboxylate], the concentration for half-maximal inhibition (IC50) stood at 272 nM on KRas G12C, 39000 nM at KRas G12S and 28700 nM on KRas WT.
Consider `O=C(Oc1ccc(F)cc1)C1CCN(c2nc(OCC34CCCN3CCC4)nc3c(F)c(-c4cccc5cccc(F)c45)ncc23)CC1` [Example 14, 4-fluorophenyl 1-(8-fluoro-7-(8-fluoronaphthalen-1-yl)-2-((tetrahydro-1H-pyrrolizin-7a(5H)-yl)methoxy)pyrido[4,3-d]pyrimidin-4-yl)piperidine-4-carboxylate], for which the IC50 is 877 nM at KRas G12C, more than 100000 nM on KRas G12S and 45000 nM at KRas WT.
In the case of `O=C[C@@H]1[C@@H]2CC[C@H]1CN(c1nc(OCC34CCCN3CCC4)nc3c(F)c(-c4cccc5cccc(F)c45)ncc13)C2` [Example 17, (1R,5S,8r)-3-(8-fluoro-7-(8-fluoronaphthalen-1-yl)-2-((tetrahydro-1H-pyrrolizin-7a(5H)-yl)methoxy)pyrido[4,3-d]pyrimidin-4-yl)-3-azabicyclo[3.2.1]octane-8-carbaldehyde], the IC50 at KRas G12C is 1080 nM; on KRas G12S, 15300 nM; at KRas WT, 5780 nM.
The corresponding values for `O=C(OCC(F)(F)F)[C@@H]1[C@@H]2CC[C@H]1CN(c1nc(OCC34CCCN3CCC4)nc3c(F)c(-c4cccc5cccc(F)c45)ncc13)C2` [Example 18, 2,2,2-trifluoroethyl (1R,5S,8r)-3-(8-fluoro-7-(8-fluoronaphthalen-1-yl)-2-((tetrahydro-1H-pyrrolizin-7a(5H)-yl)methoxy)pyrido[4,3-d]pyrimidin-4-yl)-3-azabicyclo[3.2.1]octane-8-carboxylate] are 42100 nM, 30000 nM and 7970 nM.
In the same order, the values of `COC(=O)[C@@H]1[C@@H]2CC[C@H]1CN(c1nc(OCC34CCCN3CCC4)nc3c(F)c(-c4cccc5cccc(F)c45)ncc13)C2` [Example 19, methyl (1R,5S,8s)-3-(8-fluoro-7-(8-fluoronaphthalen-1-yl)-2-((tetrahydro-1H-pyrrolizin-7a(5H)-yl)methoxy)pyrido[4,3-d]pyrimidin-4-yl)-3-azabicyclo[3.2.1]octane-8-carboxylate] are 20100 nM, 7460 nM and 2800 nM.
For the molecule `O=C(Oc1ccc(F)c(F)c1)C1CCCN(c2nc(OCC34CCCN3CCC4)nc3c(F)c(-c4cccc5cccc(F)c45)ncc23)CC1` (stereo not drawn) [Example 48, 3,4-difluorophenyl 1-(8-fluoro-7-(8-fluoronaphthalen-1-yl)-2-((tetrahydro-1H-pyrrolizin-7a(5H)-yl)methoxy)pyrido[4,3-d]pyrimidin-4-yl) azepane-4-carboxylate], the half-inhibitory concentration (IC50) on KRas G12C was determined as 2740 nM; at KRas G12S, 30100 nM.
Take `COC(=O)C1CCCN(c2nc(OCC34CCCN3CCC4)nc3c(F)c(-c4cccc5cccc(F)c45)ncc23)CC1` (stereo not drawn) [Example 49, methyl 1-(8-fluoro-7-(8-fluoronaphthalen-1-yl)-2-((tetrahydro-1H-pyrrolizin-7a(5H)-yl)methoxy)pyrido[4,3-d]pyrimidin-4-yl) azepane-4-carboxylate]: the IC50 at KRas G12C is 65900 nM; on KRas G12S, 54800 nM.
As for `O=C(Oc1ccc(C(F)(F)F)cc1)C1CCCN(c2nc(OCC34CCCN3CCC4)nc3c(F)c(-c4cccc5cccc(F)c45)ncc23)CC1` (stereo not drawn) [Example 50, 4-(trifluoromethyl)phenyl 1-(8-fluoro-7-(8-fluoronaphthalen-1-yl)-2-((tetrahydro-1H-pyrrolizin-7a(5H)-yl)methoxy)pyrido[4,3-d]pyrimidin-4-yl) azepane-4-carboxylate], the IC50 on KRas G12C was found to be 3440 nM; on KRas G12S it was 55600 nM.
